Drawing on BindingDB's records for doi:10.1016/s0960-894x(02)00206-8 (Bristol-Myers Squibb, 2002), this text covers IC50 for three compounds.

The experiment can be described thus: In vitro C-C chemokine receptor type 3 activity of compound by using eotaxin induced human eosinophil chemotaxis assay.
In the case of `CC[C@H](O)[C@H]1C[C@@H](Cc2ccccc2)CCN1CCCNC(=O)Nc1cccc(C(C)=O)c1` [1-(3-Acetyl-phenyl)-3-{3-[(2R,4S)-4-benzyl-2-((S)-1-hydroxy-propyl)-piperidin-1-yl]-propyl}-urea], inhibition was half-maximal at 20 nM (IC50). Next, `N#Cc1cccc(NC(=O)NCCCN2CCC(Cc3ccc(F)cc3)CC2)c1` [1-(3-Cyano-phenyl)-3-{3-[4-(4-fluoro-benzyl)-piperidin-1-yl]-propyl}-urea]: 80 nM. As for `N#Cc1cccc(NC(=O)NCCCN2CCC(Cc3ccc(Cl)cc3)CC2)c1` [1-{3-[4-(4-Chloro-benzyl)-piperidin-1-yl]-propyl}-3-(3-cyano-phenyl)-urea], the IC50 (in general, the midpoint of a concentration-inhibition curve) was found to be 200 nM.
